The target of assay [1] is GDP-bound NRAS wild-type protein (Homo sapiens, UniProt P01111). The assay can be described thus: Binding to NRAS by surface plasmon resonance (SPR), Single Cycle Kinetics. The following applies: SPR KD ratio NRAS/KRAS, class symbols.
The target of assay [2] is GDP-bound HRAS wild-type protein (Homo sapiens, UniProt P01112). The assay can be described thus: Binding to HRAS by surface plasmon resonance (SPR), Single Cycle Kinetics. The following applies: SPR KD ratio HRAS/KRAS, class symbols.
In assay [3] the target is GDP-bound KRAS wild-type protein (Homo sapiens, UniProt P01116). As to the kind of experiment: Binding to KRAS by surface plasmon resonance (SPR), Single Cycle Kinetics. The following applies: SPR Single Cycle Kinetics, GDP-bound KRAS wild-type protein, 1:1 binding model; read-out: KRAS KD.

The structures appear in SMILES notation.

GDP-bound KRAS wild-type protein, sequence (P01116 whole entry): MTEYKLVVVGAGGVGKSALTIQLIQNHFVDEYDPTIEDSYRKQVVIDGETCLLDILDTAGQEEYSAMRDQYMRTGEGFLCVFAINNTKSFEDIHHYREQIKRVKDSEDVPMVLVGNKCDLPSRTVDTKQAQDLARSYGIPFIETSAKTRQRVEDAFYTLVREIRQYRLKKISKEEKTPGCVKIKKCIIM
GDP-bound NRAS wild-type protein, sequence (P01111 whole entry): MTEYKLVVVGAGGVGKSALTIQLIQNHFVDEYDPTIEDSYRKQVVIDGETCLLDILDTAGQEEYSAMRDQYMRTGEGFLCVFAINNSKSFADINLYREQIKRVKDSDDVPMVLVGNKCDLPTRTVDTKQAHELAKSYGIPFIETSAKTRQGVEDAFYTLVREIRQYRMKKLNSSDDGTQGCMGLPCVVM
GDP-bound HRAS wild-type protein, sequence (P01112 whole entry): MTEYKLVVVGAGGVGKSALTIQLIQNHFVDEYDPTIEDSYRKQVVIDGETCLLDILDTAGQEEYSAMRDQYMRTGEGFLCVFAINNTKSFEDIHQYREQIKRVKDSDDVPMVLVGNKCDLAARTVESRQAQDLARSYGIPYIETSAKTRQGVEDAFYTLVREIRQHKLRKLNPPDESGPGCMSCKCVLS

Regarding `CCC[C@H]1C(=O)N[C@@H]([C@@H](C)CC)C(=O)N(C)CC(=O)N(C)[C@H]2C/C=C\CCN(C2=O)[C@@H](Cc2ccc(C(F)(F)F)cc2)C(=O)N(C)CC(=O)N[C@@H](CCc2ccc(C(F)(F)F)c(Cl)c2)C(=O)N2CCOC[C@H]2C(=O)NC2(CC(C)(C)C2)C(=O)N(C)[C@@H](C(CC)CC)C(=O)N(C)[C@H](C(=O)N(C)C)CC(=O)N1C` [PP2929], in assay [1], the “NRAS/KRAS (ratio of KD value with respect to GDP-bound NRAS wild-type protein to KD value with respect to KRAS)” value is reported as “AA (a compound having 20 or more is denoted as AA)”. For the same compound, the “HRAS/KRAS (ratio of KD value with respect to GDP-bound HRAS wild-type protein to KD value with respect to KRAS)” value in assay [2] is “A (a compound having 10 or more and less than 20 is denoted as A)”. Besides, the Kd in assay [3] amounted to 2.3 nM.
Regarding `CCC[C@H]1C(=O)N[C@@H]([C@@H](C)CC)C(=O)N(C)CC(=O)N(C)[C@H]2C/C=C\CCN(C2=O)[C@@H](Cc2ccc(C(F)(F)F)cc2)C(=O)N(C)CC(=O)N[C@@H](CCc2ccc(C(F)(F)F)c(OC)c2)C(=O)N2CCCC[C@H]2C(=O)NC2(CC(C)(C)C2)C(=O)N(C)[C@@H](C(CC)CC)C(=O)N(C)[C@H](C(=O)N(C)C)CC(=O)N1C` [PP2934], in assay [1], the “NRAS/KRAS (ratio of KD value with respect to GDP-bound NRAS wild-type protein to KD value with respect to KRAS)” value was “AA (a compound having 20 or more is denoted as AA)”. Moreover, the “HRAS/KRAS (ratio of KD value with respect to GDP-bound HRAS wild-type protein to KD value with respect to KRAS)” value in assay [2] was “A (a compound having 10 or more and less than 20 is denoted as A)”. Moreover, in assay [3], the Kd was 2 nM.
As to `CCC[C@H]1C(=O)N[C@@H]([C@@H](C)CC)C(=O)N(C)CC(=O)N(C)[C@H]2C/C=C\CCN(C2=O)[C@@H](Cc2ccc(C(F)(F)F)cc2)C(=O)N(C)CC(=O)N[C@@H](CCc2ccc(C(F)(F)F)c(OC)c2)C(=O)N2CCOC[C@H]2C(=O)NC2(CC(C)(C)C2)C(=O)N(C)[C@@H](C(CC)CC)C(=O)N(C)[C@H](C(=O)N(C)C)CC(=O)N1C` [PP2935], the “NRAS/KRAS (ratio of KD value with respect to GDP-bound NRAS wild-type protein to KD value with respect to KRAS)” value in assay [1] was “A (a compound having 10 or more and less than 20 is denoted as A)”. Also, the “HRAS/KRAS (ratio of KD value with respect to GDP-bound HRAS wild-type protein to KD value with respect to KRAS)” value in assay [2] was “A (a compound having 10 or more and less than 20 is denoted as A)”. The Kd in assay [3] came to 1.5 nM.
For `CCC[C@H]1C(=O)N[C@@H]([C@@H](C)CC)C(=O)N(C)CC(=O)N(C)[C@H]2C/C=C\CCN(C2=O)[C@@H](Cc2ccc(C(F)(F)F)cc2)C(=O)N(C)CC(=O)N[C@@H](CCc2ccc(C(F)(F)F)c(OC)c2)C(=O)N2CC[C@H]2C(=O)NC2(CC(C)(C)C2)C(=O)N(C)[C@@H](C(CC)CC)C(=O)N(C)[C@H](C(=O)N(C)C)CC(=O)N1C` [PP2936], in assay [1], the “NRAS/KRAS (ratio of KD value with respect to GDP-bound NRAS wild-type protein to KD value with respect to KRAS)” value is on record as “AA (a compound having 20 or more is denoted as AA)”. The “HRAS/KRAS (ratio of KD value with respect to GDP-bound HRAS wild-type protein to KD value with respect to KRAS)” value in assay [2] is “A (a compound having 10 or more and less than 20 is denoted as A)”. In addition, in assay [3], the Kd is 2.7 nM.
As to `CCC(CC)[C@H]1C(=O)N(C)[C@H](C(=O)N(C)C)CC(=O)N(C)[C@@H](COC)C(=O)N[C@@H]([C@@H](C)CC)C(=O)N(C)CC(=O)N(C)[C@H]2C/C=C\CCN(C2=O)[C@@H](Cc2ccc(C(F)(F)F)cc2)C(=O)N(C)CC(=O)N[C@@H](CCc2ccc(Cl)c(Cl)c2)C(=O)N2CCOC[C@H]2C(=O)NC2(CC(C)(C)C2)C(=O)N1C` [PP2941], the “NRAS/KRAS (ratio of KD value with respect to GDP-bound NRAS wild-type protein to KD value with respect to KRAS)” value in assay [1] is reported as “AA (a compound having 20 or more is denoted as AA)”. The “HRAS/KRAS (ratio of KD value with respect to GDP-bound HRAS wild-type protein to KD value with respect to KRAS)” value in assay [2] is “A (a compound having 10 or more and less than 20 is denoted as A)”. The Kd in assay [3] was found to be 2.5 nM.
For `CCC[C@H]1C(=O)N[C@@H]([C@@H](C)CC)C(=O)N(C)CC(=O)N(C)[C@H]2C/C=C\CCN(C2=O)[C@@H](Cc2ccc(C(F)(F)F)cc2)C(=O)N(C)CC(=O)N[C@@H](CCc2cc(Cl)c3sccc3c2)C(=O)N2C[C@H](OCC)C[C@H]2C(=O)NC2(CC(C)(C)C2)C(=O)N(C)[C@@H](C2CCCC2)C(=O)N(C)[C@H](C(=O)N(C)C)CC(=O)N1C` [PP2946], the “NRAS/KRAS (ratio of KD value with respect to GDP-bound NRAS wild-type protein to KD value with respect to KRAS)” value in assay [1] is “A (a compound having 10 or more and less than 20 is denoted as A)”. In assay [2], the “HRAS/KRAS (ratio of KD value with respect to GDP-bound HRAS wild-type protein to KD value with respect to KRAS)” value was “A (a compound having 10 or more and less than 20 is denoted as A)”. For the same compound, the Kd in assay [3] was determined as 0.052 nM.

For the origin of these results see US20240158446A1, “CYCLIC COMPOUND HAVING SELECTIVE INHIBITORY ACTION ON KRAS OVER HRAS AND NRAS” (CHUGAI SEIYAKU KABUSHIKI KAISHA, priority 2021, published 2024).
